# Data reported in patent US12692261B2, “Substituted heterocyclic compounds and therapeutic uses thereof” (Bayer Aktiengesellschaft, priority 2020, dated 2026).
# Columns and labels:
# [1] = biological target: T1, full-length human CSNK1D (Homo sapiens, UniProt P48730); test: CSNK1D Assay (ADP-Glo, 1 μM ATP); format: biochemical; conditions: Table 3, read-out: CSNK1D IC50 [mol/l] (median)
# T1 construct: N-terminal Glutathion-S-Transferase (GST) and full-length human CSNK1D; purchased Life Technologies PV3665; host or cells: baculovirus infected insect cells
# Protocol: CSNK1D-inhibitory activity of compounds of the present invention in presence of 1 μM adenosine-tri-phosphate (ATP) was quantified employing the CSNK1 D assay as described in the following paragraphs. In essence, the enzyme activity is measured by quantification of the adenosine-di-phosphate (ADP), which is generated as a co-product of the enzyme reaction, via the “ADP-Glo™ Kinase Assay” kit from the company Promega. This detection system works as follows: In a first step the ATP not consumed in the kinase reaction is quantitatively converted to cAMP employing an adenylate cyclase (“ADP-Glo-reagent”), then the adenylate cyclase is stopped and the ADP generated in the kinase reaction converted to ATP which generates in a luciferase-based reaction a glow-luminescence signal (“Kinase Detection Reagent”).
# Recombinant fusion protein of N-terminal Glutathion-S-Transferase (GST) and full-length human CSNK1D, expressed by baculovirus infected insect cells and purified via Glutathion affinity chromatography, was purchased from Life Technologies (product no. PV3665) and used as enzyme. As substrate for the kinase reaction the biotinylated peptide Btn-Ahx-[…] (C-terminus in amide form) was used which can be purchased e.g. from the company Biosyntan (Berlin-Buch, Germany).
# For the assay 50 nl of a 100 fold concentrated solution of the test compound in DMSO was pipetted into a white 1536-well microtiter plate (Greiner Bio-One, Frickenhausen, Germany), 2 μL of a solution of CSNK1D in aqueous assay buffer [50 mM HEPES pH 7.5, 10% (v/v) glycerol, 10 mM MgCl2, 50 mM NaCl, 1 mM dithiothreitol, 0.01% (w/v) bovine serum albumin, 0.01% (v/v) Triton X-100] were added and the mixture was incubated for 15 min at 22° C. to allow pre-binding of the test compounds to the enzyme before the start of the kinase reaction. […] The concentration of CSNK1D was adjusted depending of the activity of the enzyme lot and was chosen appropriate to have the assay in the linear range, a typical concentration is about 0.5 ng/μL. The reaction was stopped by the addition of 2.5 μL of “ADP-Glo-reagent” (1:1.5 fold diluted with water) and the resulting mixture was incubated at 22° C. for 1 h to convert the ATP not consumed in the kinase reaction completely […]. Subsequently 2.5 μL of the “kinase detection reagent” (1.2 fold more concentrated than recommended by the producer) were added, the resulting mixture was incubated at 22° C. for 1 h and then the luminescence measured with a suitable measurement instrument (e.g. Viewlux™ from Perkin-Elmer). The amount of emitted light was taken as a measure for the amount of ADP generated and thereby for the activity of the CSNK1D.
# [2] = biological target: T2, full-length human CSNK1A1 (Homo sapiens, UniProt P48729); test: CSNK1A1 Assay 2 (ADP-Glo, 1 μM ATP, substrate biotin-Ahx-KRRRAL-pS-VASLPGL); format: biochemical; conditions: Table 3, read-out: CSNK1A1 Assay 2 IC50 [mol/l] (median)
# T2 construct: N-terminal Glutathion-S-Transferase (GST) and full-length human CSNK1A1; purchased Life Technologies PV4174; host or cells: baculovirus infected insect cells
# Protocol: CSNK1A1-inhibitory activity of compounds of the present invention in presence of 1 μM adenosine-tri-phosphate (ATP) was quantified employing the CSNK1A1 assay as described in the following paragraphs. In essence, the enzyme activity is measured by quantification of the adenosine-di-phosphate (ADP), which is generated as a co-product of the enzyme reaction, via the “ADP-Glo™ Kinase Assay” kit from the company Promega. This detection system works as follows: In a first step the ATP not consumed in the kinase reaction is quantitatively converted to cAMP employing an adenylate cyclase (“ADP-Glo-reagent”), then the adenylate cyclase is stopped and the ADP generated in the kinase reaction converted to ATP which generates in a luciferase-based reaction a glow-luminescence signal (“Kinase Detection Reagent”).
# Recombinant fusion protein of N-terminal Glutathion-S-Transferase (GST) and full-length human CSNK1A1, expressed by baculovirus infected insect cells and purified via Glutathion affinity chromatography, was purchased from Life Technologies (product no. PV4174) and used as enzyme. As substrate for the kinase reaction the biotinylated peptide biotin-Ahx-KRRRAL-pS-VASLPGL (C-terminus in amide form) was used which can be purchased e.g. from the company Biosyntan (Berlin-Buch, Germany).
# For the assay 50 nl of a 100 fold concentrated solution of the test compound in DMSO was pipetted into a white 1536-well microtiter plate (Greiner Bio-One, Frickenhausen, Germany), 2 μL of a solution of CSNK1A1 in aqueous assay buffer [50 mM HEPES pH 7.5, 10% (v/v) glycerol, 10 mM MgCl2, 50 mM NaCl, 1 mM dithiothreitol, 0.01% (w/v) bovine serum albumin, 0.01% (v/v) Triton X-100] were added and the mixture was incubated for 15 min at 22° C. to allow pre-binding of the test compounds to the enzyme before the start of the kinase reaction. […] The concentration of CSNK1A1 was adjusted depending of the activity of the enzyme lot and was chosen appropriate to have the assay in the linear range, a typical concentrations are about 0.0375 ng/μL. The reaction was stopped by the addition of 2.5 μL of “ADP-Glo-reagent” (1:1.5 fold diluted with water) and the resulting mixture was incubated at 22° C. for 1 h to convert the ATP not consumed in the kinase reaction completely […]. Subsequently 2.5 μL of the “kinase detection reagent” (1.2 fold more concentrated than recommended by the producer) were added, the resulting mixture was incubated at 22° C. for 1 h and then the luminescence measured with a suitable measurement instrument (e.g. Viewlux™ from Perkin-Elmer). The amount of emitted light was taken as a measure for the amount of ADP generated and thereby for the activity of the CSNK1A1.
# T2 sequence (P48729 whole entry): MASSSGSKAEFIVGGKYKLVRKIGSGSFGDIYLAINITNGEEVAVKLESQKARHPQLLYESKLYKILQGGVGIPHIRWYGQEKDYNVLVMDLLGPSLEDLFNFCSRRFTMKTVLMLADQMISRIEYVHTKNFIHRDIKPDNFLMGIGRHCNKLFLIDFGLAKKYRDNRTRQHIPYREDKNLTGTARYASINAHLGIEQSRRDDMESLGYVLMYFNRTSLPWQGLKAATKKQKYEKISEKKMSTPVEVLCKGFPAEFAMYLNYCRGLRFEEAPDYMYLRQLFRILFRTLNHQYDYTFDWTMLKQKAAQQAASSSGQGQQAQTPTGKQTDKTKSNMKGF
# T1 sequence (P48730 whole entry): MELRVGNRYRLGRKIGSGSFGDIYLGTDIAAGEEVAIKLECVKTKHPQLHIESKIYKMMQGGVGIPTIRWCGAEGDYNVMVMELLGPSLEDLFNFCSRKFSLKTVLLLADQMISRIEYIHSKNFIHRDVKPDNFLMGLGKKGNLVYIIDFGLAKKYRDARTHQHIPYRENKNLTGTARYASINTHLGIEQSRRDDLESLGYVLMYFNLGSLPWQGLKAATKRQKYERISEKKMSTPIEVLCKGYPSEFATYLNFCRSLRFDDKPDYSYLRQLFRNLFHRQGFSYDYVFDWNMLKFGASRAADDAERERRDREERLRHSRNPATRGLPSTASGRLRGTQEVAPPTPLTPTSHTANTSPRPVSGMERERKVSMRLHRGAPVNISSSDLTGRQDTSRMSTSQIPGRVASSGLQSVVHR
Structure (SMILES),IC50 [1] [nM],IC50 [2] [nM]
"O=C(Nc1cc(-c2[nH]c3c(OC[C@H]4COCCO4)cc(F)nc3c2-c2ccccn2)ccn1)C(CC(F)F)c1ccc(F)cc1 (mixture of isomers) [Example 50, (2RS)—N-{4-[7-{[(2R)-1,4-dioxan-2-yl]methoxy}-5-fluoro-3-(pyridin-2-yl)-1H-pyrrolo[3,2-b]pyridin-2-yl]pyridin-2-yl}-4,4-difluoro-2-(4-fluorophenyl)butanamide]",9.03,9.34
"Cc1ccc2[nH]c(-c3ccnc(NC(=O)C(CC(F)F)c4ccc(F)cc4)c3)c(-c3ccccn3)c2n1 (racemic) [Example 4, 4,4-difluoro-2-(4-fluorophenyl)-N-{4-[5-methyl-3-(pyridin-2-yl)-1H-pyrrolo[3,2-b]pyridin-2-yl]pyridin-2-yl}butanamide]",9.45,6.49
"Cc1cnc2c(-c3ccccn3)c(-c3ccnc(NC(=O)C(CC(F)F)c4ccc(F)cc4)c3)[nH]c2c1 (racemic) [Example 7, 4,4-difluoro-2-(4-fluorophenyl)-N-{4-[6-methyl-3-(pyridin-2-yl)-1H-pyrrolo[3,2-b]pyridin-2-yl]pyridin-2-yl}butanamide]",4.13,2.76
"O=C(Nc1cc(-c2[nH]c3cccnc3c2-c2ccccn2)ccn1)C(CC(F)F)c1ccc(F)cc1 (racemic) [Example 10, 4,4-difluoro-2-(4-fluorophenyl)-N-{4-[3-(pyridin-2-yl)-1H-pyrrolo[3,2-b]pyridin-2-yl]pyridin-2-yl}butanamide]",4.99,2.61
"O=C(Nc1cc(-c2[nH]c3cncnc3c2-c2ccccn2)ccn1)C(CC(F)F)c1ccc(F)cc1 (racemic) [Example 13, 4,4-difluoro-2-(4-fluorophenyl)-N-{4-[7-(pyridin-2-yl)-5H-pyrrolo[3,2-d]pyrimidin-6-yl]pyridin-2-yl}butanamide]",12.3,4.66
"O=C(Nc1cc(-c2[nH]c3cc(F)cnc3c2-c2ccccn2)ccn1)C(CC(F)F)c1ccc(F)cc1 (racemic) [Example 16, 4,4-difluoro-2-(4-fluorophenyl)-N-{4-[6-fluoro-3-(pyridin-2-yl)-1H-pyrrolo[3,2-b]pyridin-2-yl]pyridin-2-yl}butanamide]",4.57,3.39
"O=C(Nc1cc(-c2[nH]c3cc(F)cnc3c2-c2ccccc2)ccn1)C(CC(F)F)c1ccc(F)cc1 (racemic) [Example 19, 4,4-difluoro-2-(4-fluorophenyl)-N-[4-(6-fluoro-3-phenyl-1H-pyrrolo[3,2-b]pyridin-2-yl)pyridin-2-yl]butanamide]",6.92,9.22
"O=C(Nc1cc(-c2[nH]c3cccnc3c2-c2ccccc2)ccn1)C(CC(F)F)c1ccc(F)cc1 (racemic) [Example 22, 4,4-difluoro-2-(4-fluorophenyl)-N-[4-(3-phenyl-1H-pyrrolo[3,2-b]pyridin-2-yl)pyridin-2-yl]butanamide]",3.18,2.37
"O=C(Nc1cc(-c2[nH]c3cccnc3c2-c2cccc(F)n2)ccn1)C(CC(F)F)c1ccc(F)cc1 (racemic) [Example 25, 4,4-difluoro-2-(4-fluorophenyl)-N-{4-[3-(6-fluoropyridin-2-yl)-1H-pyrrolo[3,2-b]pyridin-2-yl]pyridin-2-yl}butanamide]",7.87,2.77
"O=C(Nc1cc(-c2[nH]c3c(OCC(F)F)cc(F)nc3c2-c2ccccn2)ccn1)C(CC(F)F)c1ccc(F)cc1 (racemic) [Example 28, (2RS)—N-{4-[7-(2,2-difluoroethoxy)-5-fluoro-3-(pyridin-2-yl)-1H-pyrrolo[3,2-b]pyridin-2-yl]pyridin-2-yl}-4,4-difluoro-2-(4-fluorophenyl)butanamide]",4,3.95
"O=C(Nc1cc(-c2[nH]c3nccnc3c2-c2ccccn2)ccn1)C(CC(F)F)c1ccc(F)cc1 (racemic) [Example 31, (2RS)-4,4-difluoro-2-(4-fluorophenyl)-N-{4-[7-(pyridin-2-yl)-5H-pyrrolo[2,3-b]pyrazin-6-yl]pyridin-2-yl}butanamide]",7.81,3.04
